Measured values reported in patent US11672817B2, “Maltosyl-Isomaltooligosaccharides” (ISOThrive Inc., priority 2016, dated 2023).
No end group written: not given here.

What was measured:
[1] = test system: Weissella viridescens NRRL B-1951; experiment: W. viridescens culture absorbance (growth) with nisin; assay type: cell-based; parameters: key to Corrected ABS 610rs: A600 minus background absorbance taken just after inoculation; conditions: for 91516 ABS 610f: final absorbance, uncorrected
Method: Purified nisin A and Z are commercially available and were acquired from Handary S. A. (Brussels Belgium). Certificates of analysis for each lot indicated purities of 95.2 and 99.6% for nisin A and Z, respectively.
100 g De-Man, Rogosa and Sharpe (MRS) media was prepared in a 500 mL Erlenmeyer to contain 5.5% solids in deionized water (18.2 MS2, Hydro Service and Supplies, Gaithersburg, Md.). The media was autoclaved (121° C. 15 min), cooled, and inoculated with 1 mL (0.5 mL culture+0.5 mL glycerol, 40%; frozen at −78° C.) of Weissella viridescens NRRL B-1951 (test strain). The culture was incubated at 31° C. overnight (15 Hr).
The next day, stock solutions of either nisin A or Z were prepared in deionized water to contain 31.3 and 33.7 μg/g of each peptide.
(§1) 100 g MRS media was prepared to contain 5.5% solids. Two sets (one set each for nisin A and nisin Z) of eight Hach-type tubes (Kimble Chase 45066-16100) were prepared. Within each set, in order was added 5.00, 4.95, 4.90, 4.75, 4.50, 4.00, 3.50 and 3.00 g MRS media. The tubes were sealed and autoclaved.
(§2) To each tube was added, of the appropriate nisin stock, 0.00, 0.05, 0.10, 0.25, 0.50, 1.00, 1.50, and 2.00 g. Each tube was inoculated with 0.25 g of late-log W. viridescens NRRL B-1951 culture. The tubes were sealed and the absorbance at 600 nm was quickly measured (Hach DR900). The tubes were segregated by set and incubated at 31° C. overnight (15 Hr).
Each tube was thoroughly mixed to suspend settled cells and the absorbance was measured again at 600 nm. The final absorbance values for each sample were corrected for their respective background (taken just after inoculation, scattered light from added cells). The corrected absorption values were a measure of W. viridescens growth. The corrected values were plotted against nisin concentration and minimum inhibiting concentration approximated via regression.

[2] = test system: Weissella viridescens NRRL B-1951; experiment: HPLC of culture supernatants: consumption of glucose and production of organic acids with nisin; assay type: cell-based; conditions: for acetic acid in the fermentation media: MRS media originally contained 7% acetate
Method: as §1, §2
Each tube was sampled (1.5 mL conical polypropylene centrifuge tubes) and centrifuged at 10 kRPM for 10 minutes to remove and suspended cells. The resulting supernatants were filtered (0.2 μm nylon), diluted to 0.5% solids, and analyzed by high pressure liquid chromatography (HPLC, Agilent 1100, refractive index detector and BioRad Ainex HPX-87H column) for consumption of glucose and production of organic acids. The following table illustrates the concentration of sugars such as glucose and production of organic acids during the incubation.
Note that the MRS media originally contained 7% acetate; therefore 7% should be subtracted from the values for acetate in the above table to ascertain the amount of acetate generated during the assay.

With “nisin A (ITSISLCTPGCKTGALMGCNMKTATCHCSIHVSK; not fully specified (residues 2, 5, 33, bridges); also: lantibiotic (thioether rings, dehydrated residues not placed); UniProt P13068 24-57, looked up) [Purified nisin A, commercially available, acquired from Handary S. A; purity 95.2%; bacteriocin peptide]” the “inhibition of bacterial growth” value [1] was “can effectively inhibit”, the “91516 ABS 610f” value ([1]; nisin A 0.33 μg/g (tube A2)) was 1.568 and the “91516 ABS 610f” value ([1]; nisin A 0.68 μg/g (tube A3)) was 1.531. The “91516 ABS 610f” value ([1]; nisin A 1.38 μg/g (tube A4)) was 1.334, the “91516 ABS 610f” value ([1]; nisin A 3.08 μg/g (tube A5)) was 0.911 and the “91516 ABS 610f” value ([1]; nisin A 5.97 μg/g (tube A6)) was 0.536. For the same substance, the “91516 ABS 610f” value ([1]; nisin A 8.86 μg/g (tube A7)) was 0.403, the “91516 ABS 610f” value ([1]; nisin A 11.87 μg/g (tube A8)) was 0.361 and the “Corrected ABS 610rs” value ([1]; nisin A 0.33 μg/g (tube A2)) was 1.106. The “Corrected ABS 610rs” value ([1]; nisin A 0.68 μg/g (tube A3)) was 1.063, the “Corrected ABS 610rs” value ([1]; nisin A 1.38 μg/g (tube A4)) was 0.868 and the “Corrected ABS 610rs” value ([1]; nisin A 3.08 μg/g (tube A5)) was 0.473. The “Corrected ABS 610rs” value ([1]; nisin A 5.97 μg/g (tube A6)) was 0.116, the “Corrected ABS 610rs” value ([1]; nisin A 8.86 μg/g (tube A7)) was 0.001 and the “Corrected ABS 610rs” value ([1]; nisin A 11.87 μg/g (tube A8)) was 0.001. The “Maltotriose in the fermentation media” value ([2]; nisin A 0.33 μg/g (tube A2)) was 0.312 %/brix, the “ethanol in the fermentation media” value ([2]; nisin A 0.33 μg/g (tube A2)) was 0.068 %/brix and the “formic acid in the fermentation media” value ([2]; nisin A 0.33 μg/g (tube A2)) was 0.263 %/brix. The “fructose in the fermentation media” value ([2]; nisin A 0.33 μg/g (tube A2)) was 0.000 %/brix, the “glucose in the fermentation media” value ([2]; nisin A 0.33 μg/g (tube A2)) was 23.122 %/brix and the “glycerol in the fermentation media” value ([2]; nisin A 0.33 μg/g (tube A2)) was 0.292 %/brix. The “lactic acid in the fermentation media” value ([2]; nisin A 0.33 μg/g (tube A2)) was 6.884 %/brix, the “maltose in the fermentation media” value ([2]; nisin A 0.33 μg/g (tube A2)) was 0.581 %/brix and the “acetic acid in the fermentation media” value ([2]; nisin A 0.33 μg/g (tube A2)) was 7.967 %/brix. For the same substance, the “Maltotriose in the fermentation media” value ([2]; nisin A 1.38 μg/g (tube A4)) was 0.298 %/brix, the “ethanol in the fermentation media” value ([2]; nisin A 1.38 μg/g (tube A4)) was 0.062 %/brix and the “formic acid in the fermentation media” value ([2]; nisin A 1.38 μg/g (tube A4)) was 0.282 %/brix. For the same substance, the “fructose in the fermentation media” value ([2]; nisin A 1.38 μg/g (tube A4)) was 0.000 %/brix, the “glucose in the fermentation media” value ([2]; nisin A 1.38 μg/g (tube A4)) was 24.138 %/brix and the “glycerol in the fermentation media” value ([2]; nisin A 1.38 μg/g (tube A4)) was 0.319 %/brix. The “lactic acid in the fermentation media” value ([2]; nisin A 1.38 μg/g (tube A4)) was 5.496 %/brix, the “maltose in the fermentation media” value ([2]; nisin A 1.38 μg/g (tube A4)) was 0.815 %/brix and the “acetic acid in the fermentation media” value ([2]; nisin A 1.38 μg/g (tube A4)) was 8.219 %/brix. For the same substance, the “Maltotriose in the fermentation media” value ([2]; nisin A 3.08 μg/g (tube A5)) was 0.276 %/brix, the “ethanol in the fermentation media” value ([2]; nisin A 3.08 μg/g (tube A5)) was 0.094 %/brix and the “formic acid in the fermentation media” value ([2]; nisin A 3.08 μg/g (tube A5)) was 0.407 %/brix. For the same substance, the “fructose in the fermentation media” value ([2]; nisin A 3.08 μg/g (tube A5)) was 0.000 %/brix, the “glucose in the fermentation media” value ([2]; nisin A 3.08 μg/g (tube A5)) was 24.698 %/brix and the “glycerol in the fermentation media” value ([2]; nisin A 3.08 μg/g (tube A5)) was 0.350 %/brix. For the same substance, the “lactic acid in the fermentation media” value ([2]; nisin A 3.08 μg/g (tube A5)) was 4.672 %/brix, the “maltose in the fermentation media” value ([2]; nisin A 3.08 μg/g (tube A5)) was 0.598 %/brix and the “acetic acid in the fermentation media” value ([2]; nisin A 3.08 μg/g (tube A5)) was 8.296 %/brix. The “Maltotriose in the fermentation media” value ([2]; nisin A 5.97 μg/g (tube A6)) was 0.288 %/brix, the “ethanol in the fermentation media” value ([2]; nisin A 5.97 μg/g (tube A6)) was 0.057 %/brix and the “formic acid in the fermentation media” value ([2]; nisin A 5.97 μg/g (tube A6)) was 0.280 %/brix. The “fructose in the fermentation media” value ([2]; nisin A 5.97 μg/g (tube A6)) was 0.000 %/brix, the “glucose in the fermentation media” value ([2]; nisin A 5.97 μg/g (tube A6)) was 25.304 %/brix and the “glycerol in the fermentation media” value ([2]; nisin A 5.97 μg/g (tube A6)) was 0.328 %/brix. For the same substance, the “lactic acid in the fermentation media” value ([2]; nisin A 5.97 μg/g (tube A6)) was 2.707 %/brix, the “maltose in the fermentation media” value ([2]; nisin A 5.97 μg/g (tube A6)) was 0.941 %/brix and the “acetic acid in the fermentation media” value ([2]; nisin A 5.97 μg/g (tube A6)) was 8.143 %/brix. For the same substance, the “Maltotriose in the fermentation media” value ([2]; nisin A 8.86 μg/g (tube A7)) was 0.419 %/brix, the “ethanol in the fermentation media” value ([2]; nisin A 8.86 μg/g (tube A7)) was 0.055 %/brix and the “formic acid in the fermentation media” value ([2]; nisin A 8.86 μg/g (tube A7)) was 0.234 %/brix. For the same substance, the “fructose in the fermentation media” value ([2]; nisin A 8.86 μg/g (tube A7)) was 0.000 %/brix, the “glucose in the fermentation media” value ([2]; nisin A 8.86 μg/g (tube A7)) was 25.444 %/brix and the “glycerol in the fermentation media” value ([2]; nisin A 8.86 μg/g (tube A7)) was 0.299 %/brix. The “lactic acid in the fermentation media” value ([2]; nisin A 8.86 μg/g (tube A7)) was 1.521 %/brix, the “maltose in the fermentation media” value ([2]; nisin A 8.86 μg/g (tube A7)) was 0.775 %/brix and the “acetic acid in the fermentation media” value ([2]; nisin A 8.86 μg/g (tube A7)) was 7.899 %/brix. For the same substance, the “Maltotriose in the fermentation media” value ([2]; nisin A 11.87 μg/g (tube A8)) was 0.305 %/brix, the “ethanol in the fermentation media” value ([2]; nisin A 11.87 μg/g (tube A8)) was 0.071 %/brix and the “formic acid in the fermentation media” value ([2]; nisin A 11.87 μg/g (tube A8)) was 0.233 %/brix. For the same substance, the “fructose in the fermentation media” value ([2]; nisin A 11.87 μg/g (tube A8)) was 0.000 %/brix, the “glucose in the fermentation media” value ([2]; nisin A 11.87 μg/g (tube A8)) was 25.537 %/brix and the “glycerol in the fermentation media” value ([2]; nisin A 11.87 μg/g (tube A8)) was 0.301 %/brix. The “lactic acid in the fermentation media” value ([2]; nisin A 11.87 μg/g (tube A8)) was 1.579 %/brix, the “maltose in the fermentation media” value ([2]; nisin A 11.87 μg/g (tube A8)) was 0.739 %/brix and the “acetic acid in the fermentation media” value ([2]; nisin A 11.87 μg/g (tube A8)) was 8.091 %/brix.
